Test results: PMC6013775, “Inhibition of the key enzyme of sialic acid biosynthesis by C6-Se modified N-acetylmannosamine analogs” (Chemical Science, 2016)
pIC50, pKi: −log10 of the molar value. Values joined by “and” are separate entries in the source; they are usually repeats but may differ in a detail not shown here. Equal values may be shown once.

Tests used:
[1] = target: T1, human GlcNAc kinase (GNK) (Homo sapiens, UniProt Q9UJ70); experiment: GNK inhibition, coupled optical assay; assay type: biochemical
T1 construct: GST; made in house; host or cells: Escherichia coli BL21-CodonPlus(DE3)-RIL
Source text: (§1) With the potent diselenide compound 14b in hand, we further studied the binding properties of this potent MNK inhibitor, which is to our knowledge the strongest MNK inhibitor reported to date. Diselenide 14b inhibited MNK activity in a dose dependent manner (Fig. 2A). […] Additionally, we tested if diselenide 14b influenced the GNE activity of the bifunctional GNE/MNK. […] To evaluate the specificity of the inhibitor towards other sugar kinases, we performed further inhibition studies using human GlcNAc kinase (GNK) and hexokinase (HK) from yeast (details in ESI ^†).
(§2) N-Acetylmannosamine kinase and N-acetylglucosamine kinase expression and […]
(§3) Human N-acetylmannosamine kinase (MNK) was expressed and purified using an established method.1 Therefore, his-tagged MNK was expressed in BL21-CodonPlus (DE3)-RIL Escherichia coli (Stragene). Purification was performed by Ni-NTA affinity chromatography, and subsequently size exclusion chromatography on a SuperdexTM HighLoad 16/600 column (GE Healthcare). […]
Evaluation MNK activity in presence of the compounds 11, 12, 14b, 16b and 18b The effects of compounds 11, 12, 14b, 16b, or 18b on MNK enzyme activity were evaluated using a coupled optical assay. […]

[2] = Stability of the diselenide towards thiol reducing agents, 77Se NMR; assay type: physicochemical
Procedure: At this stage, we also wanted to evaluate the stability of the diselenide 14b in presence of thiol-containing reducing agents like dithiothreitol (DTT) or glutathione (GSH) to address the application of our compounds in living cells. Therefore, the possible reduction of the diselenide bond was monitored by ^77Se NMR using a solution of 60 mM concentration of 14b in an aqueous saturated DTT solution at room temperature. Immediately after the addition of 14b to the DTT solution, a characteristic signal for the selenol compound at –48.1 ppm was observed and a major peak at 294 ppm related to the diselenide. Concretely, the integration of diselenide/selenol peaks gave a 90 : 10 ratio (details in ESI ^†).

[3] = target: hexokinase (HK) from yeast; experiment: Hexokinase inhibition, coupled optical assay; assay type: biochemical; settings: glucose substrate
Source text: as §1
(§4) Enzyme activity and inhibition studies using N-acetylmannosamine kinase, N-acetylglucosamine kinase and yeast hexokinase
Evaluation MNK activity in presence of the compounds 11, 12, 14b, 16b and 18b The effects of compounds 11, 12, 14b, 16b, or 18b on MNK enzyme activity were evaluated using a coupled optical assay. 55 µl reaction mixture contained the following buffers and reagents: 39.5 µl buffer A (65 mM MgCl2, 200 mM Tris-HCl, pH 8.1), 5 µl ATP (50 mM), 3.5 µl NADH (30 mM), 2 µl phosphoenolpyruvate (100 mM), 2 U pyruvate-kinase, 2 U lactate-dehydrogenase, 5 µl ManNAc of varying concentrations. Subsequently, 10 µl of the compounds 11, 12, 14b, 16b and 18b were added in varying concentrations. The reaction was initiated by adding 0.6 µg MNK in 35 µL buffer B (10 mM Tris-HCl, 150 mM NaCl, pH 8.0). […]

[4] = target: T2, human MNK (N-acetylmannosamine kinase) (Homo sapiens, UniProt Q9Y223); experiment: MNK activity, coupled optical assay based on NADH consumption; assay type: biochemical
T2 construct: His; made in house; host or cells: Escherichia coli BL21-CodonPlus (DE3)-RIL
T2 sequence (Q9Y223 406-722 limits assumed): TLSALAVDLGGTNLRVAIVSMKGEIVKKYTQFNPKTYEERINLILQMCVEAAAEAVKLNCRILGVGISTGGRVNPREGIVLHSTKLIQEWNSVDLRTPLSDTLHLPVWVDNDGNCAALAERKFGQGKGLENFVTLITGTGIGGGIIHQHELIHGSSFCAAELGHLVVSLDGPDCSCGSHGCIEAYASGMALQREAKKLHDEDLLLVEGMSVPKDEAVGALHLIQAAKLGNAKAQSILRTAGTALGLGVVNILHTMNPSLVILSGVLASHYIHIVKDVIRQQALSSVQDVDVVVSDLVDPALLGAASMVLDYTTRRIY
Procedure: as §2, §3
To evaluate their purity, protein samples were mixed with SDS-PAGE sample buffer, denatured at 90 °C for 1 min and separated by a 10% SDS-PAGE gel. Proteins were visualized with Coomassie G-250 staining solution (Biorad), and PageRuler Prestained Plus (Biorad) was used as a marker (Figure S1 ).
Figure S1. SDS-PAGE of His-tagged MNK (His-MNK) and GST-tagged GNK
(GST-GNK) after affinity chromatography and size exclusion chromatography.
Apparent molecular masses given by the marker are indicated on the left side.
1 J. Martinez, L. D. Nguyen, S. Hinderlich, R. Zimmer, E. Tauberger, W. Reutter, W. Saenger, H. Fan
2 W.A. Weihofen, M. Berger, H. Chen, W. Saenger, and S. Hinderlich, J. Mol. Biol., 2006, 364, 388.
(1 picture or pasted object on this page, not shown here)
as §4
Evaluation MNK activity in presence of the compounds 11, 12, 14b, 16b and 18b The effects of compounds 11, 12, 14b, 16b, or 18b on MNK enzyme activity were evaluated using a coupled optical assay. 55 µl reaction mixture contained the following buffers and reagents: 39.5 µl buffer A (65 mM MgCl2, 200 mM Tris-HCl, pH 8.1), 5 µl ATP (50 mM), 3.5 µl NADH (30 mM), 2 µl phosphoenolpyruvate (100 mM), 2 U pyruvate-kinase, 2 U lactate-dehydrogenase, 5 µl ManNAc of varying concentrations. Subsequently, 10 µl of the compounds 11, 12, 14b, 16b and 18b were added in varying concentrations. The reaction was initiated by adding 0.6 µg MNK in 35 µL buffer B (10 mM Tris-HCl, 150 mM NaCl, pH 8.0). Samples were incubated at 37°C. Spectrophotometric measurements of NADH concentration was performed at 340 nm. Results obtained were normalized to blanks, consisting of 55 µl reaction mixture, 10 µl H 2O and 35 µl buffer B without MNK.
GNK and hexokinase inhibition assays using compound 14b
To evaluate the specificity of the inhibitor 14b towards other sugar kinases, we performed further inhibition experiments using human GNK and hexokinase (HK) from yeast (Sigma, H-5000). 39.5 µl Buffer A (see above), 5 µl ATP (50 mM), 3.5 µl NADH (30 mM), 2 µl phosphoenolpyruvate (100 mM), 2 U pyruvate-kinase, 2 U lactate-dehydrogenase, 5 µl GlcNAc (7.5 mM, for GNK experiments), or 5 µl ManNAc (7.5 mM, for GNK experiments), or glucose (5 mM, for HK experiments), and 10 µl 14b (varying concentrations) were mixed with either 1 µg GNK or 0.2 µg HK in 35 µL buffer B. The decrease of NADH was measured in a spectrophotometer […]
5 mM for HK activity, respectively (Figure S2).
Figure S2. Inhibition of GNK and HK activity by 14b. Values are means ± SEM of […]

T1 sequence (Q9UJ70 whole entry): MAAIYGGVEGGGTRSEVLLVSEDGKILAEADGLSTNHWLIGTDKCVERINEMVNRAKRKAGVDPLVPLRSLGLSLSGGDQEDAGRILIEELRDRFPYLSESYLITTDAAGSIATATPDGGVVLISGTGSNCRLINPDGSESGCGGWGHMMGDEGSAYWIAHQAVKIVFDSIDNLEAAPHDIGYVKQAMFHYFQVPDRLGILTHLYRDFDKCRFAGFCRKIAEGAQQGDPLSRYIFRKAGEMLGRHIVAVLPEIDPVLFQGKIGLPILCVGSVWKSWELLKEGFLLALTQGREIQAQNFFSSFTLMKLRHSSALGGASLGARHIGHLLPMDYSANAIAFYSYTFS

CC(=O)N[C@@H]1C(O)O[C@H](C[Se][Se]C[C@H]2OC(O)[C@@H](NC(C)=O)[C@@H](O)[C@@H]2O)[C@@H](O)[C@@H]1O (stereo partly shown) [Compound 14b]
pIC50 [1]: ~2.77 and 2.77 | species detected by 77Se NMR ([2]; 60 mM in aqueous saturated DTT solution, between 15 min and 5 h): only signals from the diselenide were detected | species detected by 77Se NMR ([2]; 60 mM in saturated GSH solution): only diselenide 14b was detected | pIC50 [3]: < 2.30 | mode of inhibition towards ManNAc ([4]; 14b 25 μM, different concentrations of ManNAc): competitive inhibition | pKi ([4]; 14b 25 μM, different concentrations of ManNAc, Lineweaver-Burk plot, read-out: inhibitor constant (Ki)): 4.80 | pIC50 ([4]; purified human MNK, ManNAc 125 μM, ATP, means ± SEM, read-out: IC50 for MNK inhibition): 5.07
